We go through 26 compounds from patent US9777005B2 (Takeda Pharmaceutical Company Limited, priority 2012, dated 2017).

Each structure is given as a SMILES string.

The target in this assay is T1, human M1 receptor (hCHRM1) (Homo sapiens, UniProt P11229).
T1 construct: expressed in transfected cells; host or cells: CHO-K1
T1 sequence (P11229 1-460): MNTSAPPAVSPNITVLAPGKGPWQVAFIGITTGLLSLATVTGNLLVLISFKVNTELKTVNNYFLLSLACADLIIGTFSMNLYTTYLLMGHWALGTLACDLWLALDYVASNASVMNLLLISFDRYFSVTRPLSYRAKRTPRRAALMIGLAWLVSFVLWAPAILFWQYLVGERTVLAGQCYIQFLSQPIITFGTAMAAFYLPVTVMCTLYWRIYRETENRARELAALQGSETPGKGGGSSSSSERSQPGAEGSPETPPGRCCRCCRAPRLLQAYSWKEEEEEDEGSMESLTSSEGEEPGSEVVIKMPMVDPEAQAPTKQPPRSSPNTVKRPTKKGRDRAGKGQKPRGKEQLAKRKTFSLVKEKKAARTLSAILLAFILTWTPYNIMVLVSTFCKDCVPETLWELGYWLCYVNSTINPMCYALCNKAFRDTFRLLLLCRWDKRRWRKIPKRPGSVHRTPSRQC
As to the kind of experiment: Measurement of M1 receptor positive allosteric modulator (M1PAM) activity, calcium fluorescence (FLIPRtetra) in CHO-K1 cells in the presence of acetylcholine at EC20. The settings on record: in the presence of acetylcholine at EC20 (final 0.6 nM), CHO-K1 cells expressing hCHRM1; for EC50: inflection point of M1PAM activity, read-out: IP value; for activity (%) at 10 μM: test compound 10 μM. The format is cell-based. The method, boiled down: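 PAM activity was measured as calcium flux by FLIPRtetra over 1 min after co-addition of compound and EC20 acetylcholine (final 0.6 nM) to Fluo-4-loaded hCHRM1 CHO-K1 cells. The response was scaled between DMSO (0%) and 1 μM acetylcholine (100%), and the inflection point of the concentration curve gives the IP value.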

For the compound `O=C1c2c(ccnc2OCC2CCCO2)CN1Cc1ccc(-n2cc(F)cn2)cc1` (stereo not shown) [Example 234, 2-(4-(4-fluoro-1H-pyrazol-1-yl)benzyl)-4-((tetrahydrofuran-2-yl)methoxy)-1,2-dihydro-3H-pyrrolo[3,4-c]pyridin-3-one], the EC50 is 38 nM and the “activity (%) at 10 μM” value was found to be 91%.

As for `Cc1ccc(Oc2nccc3c2C(=O)N(Cc2ccc(C(N)=O)c(F)c2)C3)c(F)c1` [Example 440, 2-fluoro-4-((4-(2-fluoro-4-methylphenoxy)-3-oxo-1,3-dihydro-2H-pyrrolo[3,4-c]pyridin-2-yl)methyl)benzamide], the EC50 is 70 nM and the “activity (%) at 10 μM” value amounted to 100%.

Regarding `Cn1ccc(-c2ccc(CN3Cc4ncnc(Oc5c(F)cccc5F)c4C3=O)cc2)n1` [Example 395, 4-(2,6-difluorophenoxy)-6-(4-(1-methyl-1H-pyrazol-3-yl)benzyl)-6,7-dihydro-5H-pyrrolo[3,4-d]pyrimidin-5-one], the EC50 stood at 65 nM and the “activity (%) at 10 μM” value is recorded as 96%.

For `CCc1ccc(Oc2nccc3c2C(=O)N(Cc2ccc(C(=O)NC)c(F)c2)C3)c(F)c1` [Example 443], the EC50 came out at 31 nM and the “activity (%) at 10 μM” value amounted to 101%.

In the case of `CC(Oc1nccc2c1C(=O)N(Cc1ccc(-c3cn(C)nn3)cc1F)C2)c1ccccc1F` (stereo not shown) [Example 334, 2-(2-fluoro-4-(1-methyl-1H-1,2,3-triazol-4-yl)benzyl)-4-(1-(2-fluorophenyl)ethoxy)-1,2-dihydro-3H-pyrrolo[3,4-c]pyridin-3-one], the EC50 was determined as 65 nM and the “activity (%) at 10 μM” value is on record as 99%.

As for `CNC(=O)c1ccc(CN2Cc3ccnc(Oc4ccc(C5CC5)cc4F)c3C2=O)cn1` [Example 454, 5-((4-(4-cyclopropyl-2-fluorophenoxy)-3-oxo-1,3-dihydro-2H-pyrrolo[3,4-c]pyridin-2-yl)methyl)-N-methylpyridine-2-carboxamide], the EC50 came to 30 nM and the “activity (%) at 10 μM” value was determined as 86%.

`O=C1c2c(ccnc2O[C@@H]2CCCC[C@H]2O)CN1Cc1cccc(F)c1` (single isomer, unassigned) [Example 321, 2-(3-fluorobenzyl)-4-((trans-2-hydroxycyclohexyl)oxy)-1,2-dihydro-3H-pyrrolo[3,4-c]pyridin-3-one]: the EC50 was 32 nM and the “activity (%) at 10 μM” value was determined as 104%.

With `Cn1ccc(-c2ccc(CN3Cc4ccnc(Oc5c(F)cc(C#N)cc5F)c4C3=O)cc2)n1` [Example 375, 3,5-difluoro-4-((2-(4-(1-methyl-1H-pyrazol-3-yl)benzyl)-3-oxo-2,3-dihydro-1H-pyrrolo[3,4-c]pyridin-4-yl)oxy)benzonitrile], the EC50 worked out at 10 nM and the “activity (%) at 10 μM” value is 99%.

For `Cn1cc(-c2ccc(CN3Cc4cccc(O[C@H]5CCC[C@@H]5O)c4C3=O)cc2)nn1` (relative stereo) [Example 235, 7-((trans-2-hydroxycyclopentyl)oxy)-2-(4-(1-methyl-1H-1,2,3-triazol-4-yl)benzyl)isoindolin-1-one], the EC50 worked out at 14 nM and the “activity (%) at 10 μM” value stood at 105%.

`O=C1c2c(ccnc2OCC2CCCO2)CN1Cc1ccc(-n2cccn2)cc1` (stereo not shown) [Example 61, 2-(4-(1H-pyrazol-1-yl)benzyl)-4-((tetrahydrofuran-2-yl)methoxy)-1H-pyrrolo[3,4-c]pyridin-3(2H)-one]: the EC50 amounted to 37 nM and the “activity (%) at 10 μM” value turned out to be 113%.

Consider `Cn1cc(-c2ccc(CN3Cc4cccc(Oc5c(F)cccc5C#N)c4C3=O)c(Cl)c2)cn1` [Example 68, 2-((2-(2-chloro-4-(1-methyl-1H-pyrazol-4-yl)benzyl)-3-oxo-2,3-dihydro-1H-isoindol-4-yl)oxy)-3-fluorobenzonitrile], for which the EC50 turned out to be 72 nM and the “activity (%) at 10 μM” value is on record as 109%.

`Cn1cc(-c2ccc(CN3Cc4ccnc(Oc5ccc(CC#N)cc5F)c4C3=O)cc2)cn1` [Example 405, (3-fluoro-4-((2-(4-(1-methyl-1H-pyrazol-4-yl)benzyl)-3-oxo-2,3-dihydro-1H-pyrrolo[3,4-c]pyridin-4-yl)oxy)phenyl)acetonitrile]: the EC50 was determined as 1.8 nM and the “activity (%) at 10 μM” value is reported as 95%.

Turning to `O=C1c2c(cccc2O[C@@H]2CCOC[C@H]2O)CN1Cc1ccc(F)cc1F` (single isomer, unassigned) [Example 299, 1,5-anhydro-2-deoxy-3-O-(2-(2,4-difluorobenzyl)-3-oxo-2,3-dihydro-1H-isoindol-4-yl)-threo-pentitol], the EC50 was determined as 18 nM and the “activity (%) at 10 μM” value came to 91%.

In the case of `Cn1cc(-c2ccc(CN3Cc4cccc(O[C@H]5CCCC[C@@H]5O)c4C3=O)s2)cn1` (relative stereo) [Example 28, 7-((trans-2-hydroxycyclohexyl)oxy)-2-((5-(1-methyl-1H-pyrazol-4-yl)-2-thienyl)methyl)isoindolin-1-one], the EC50 was 7 nM and the “activity (%) at 10 μM” value was found to be 120%.

On to `Cn1cc(-c2ccc(CN3Cc4cccc(Oc5c(F)cc(C#N)cc5F)c4C3=O)nc2)cn1` [Example 377, 3,5-difluoro-4-((2-((5-(1-methyl-1H-pyrazol-4-yl)pyridin-2-yl)methyl)-3-oxo-2,3-dihydro-1H-isoindol-4-yl)oxy)benzonitrile], for which the EC50 came out at 7.6 nM and the “activity (%) at 10 μM” value worked out at 83%.

Regarding `Cc1cn(-c2ccc(CN3Cc4ccnc(Oc5ccc(C(F)(F)F)cc5F)c4C3=O)cc2)cn1` [Example 418, 4-(2-fluoro-4-(trifluoromethyl)phenoxy)-2-(4-(4-methyl-1H-imidazol-1-yl)benzyl)-1,2-dihydro-3H-pyrrolo[3,4-c]pyridin-3-one], the EC50 turned out to be 9.1 nM and the “activity (%) at 10 μM” value was found to be 95%.

As to `Cn1cc(-c2ccc(CN3Cc4ncnc(Oc5c(F)cccc5Cl)c4C3=O)cc2)cn1` [Example 396, 4-(2-chloro-6-fluorophenoxy)-6-(4-(1-methyl-TH-pyrazol-4-yl)benzyl)-6,7-dihydro-5H-pyrrolo[3,4-d]pyrimidin-5-one], the EC50 was determined as 33 nM and the “activity (%) at 10 μM” value worked out at 95%.

Consider `Cc1cc(-c2ccc(CN3Cc4ccnc(OCC5CCCO5)c4C3=O)cc2)ccn1` (stereo not shown) [Example 80], for which the EC50 is 5.6 nM and the “activity (%) at 10 μM” value came out at 100%.

Consider `O=C1c2c(ncnc2Oc2ccc(C(F)(F)F)cc2F)CN1Cc1ccc(-c2ccnnc2)cc1` [Example 313, 4-(2-fluoro-4-(trifluoromethyl)phenoxy)-6-(4-(pyridazin-4-yl)benzyl)-6,7-dihydro-5H-pyrrolo[3,4-d]pyrimidin-5-one], for which the EC50 amounted to 27 nM and the “activity (%) at 10 μM” value was 89%.

Take `O=C1c2c(cccc2O[C@H]2CCCC[C@@H]2O)CN1Cc1ccc(-c2ccnnc2)cc1` (relative stereo) [Example 352, 7-((trans-2-hydroxycyclohexyl)oxy)-2-(4-(pyridazin-4-yl)benzyl)isoindolin-1-one]: the EC50 was 4.4 nM and the “activity (%) at 10 μM” value is 94%.

In the case of `Cn1cc(-c2ccc(CN3Cc4cccc(O[C@H]5CCCC[C@@H]5O)c4C3=O)cc2)cn1` (relative stereo) [Example 1, 7-((trans-2-hydroxycyclohexyl)oxy)-2-(4-(1-methyl-1H-pyrazol-4-yl)benzyl)isoindolin-1-one], the EC50 amounted to 7 nM and the “activity (%) at 10 μM” value is listed as 102%.

Take `Cn1ccc(-c2ccc(CN3Cc4ncnc(Oc5c(F)cc(F)cc5F)c4C3=O)cc2)n1` [Example 366, 6-(4-(1-methyl-1H-pyrazol-3-yl)benzyl)-4-(2,4,6-trifluorophenoxy)-6,7-dihydro-5H-pyrrolo[3,4-d]pyrimidin-5-one]: the EC50 is 42 nM and the “activity (%) at 10 μM” value worked out at 104%.

In the case of `Cc1nn(C)cc1-c1ccc(CN2Cc3ccnc(Oc4ccc(C(C)(C)O)cc4F)c3C2=O)cc1` [Example 412, 2-(4-(1,3-dimethyl-1H-pyrazol-4-yl)benzyl)-4-(2-fluoro-4-(2-hydroxypropan-2-yl)phenoxy)-1,2-dihydro-3H-pyrrolo[3,4-c]pyridin-3-one], the EC50 was found to be 8 nM and the “activity (%) at 10 μM” value is 101%.

For `Cn1cc(-c2ccc(CN3Cc4cccc(O[C@H]5CCC(F)(F)C[C@@H]5O)c4C3=O)cc2)cn1` (relative stereo) [Example 2, 7-((trans-4,4-difluoro-2-hydroxycyclohexyl)oxy)-2-(4-(1-methyl-1H-pyrazol-4-yl)benzyl)isoindolin-1-one], the EC50 was 8.7 nM and the “activity (%) at 10 μM” value turned out to be 105%.

Turning to `Cc1nn(C)cc1-c1ccc(CN2Cc3ccnc(OCC4CCOCC4)c3C2=O)c(F)c1` [Example 262, 2-(4-(1,3-dimethyl-1H-pyrazol-4-yl)-2-fluorobenzyl)-4-((tetrahydro-2H-pyran-4-yl)methoxy)-1,2-dihydro-3H-pyrrolo[3,4-c]pyridin-3-one], the EC50 was 54 nM and the “activity (%) at 10 μM” value is listed as 107%.

With `O=C1c2c(cccc2O[C@H]2CCCC[C@@H]2O)CN1Cc1ccc(Cl)nc1` (relative stereo) [Example 43, 2-((6-chloropyridin-3-yl)methyl)-7-((trans-2-hydroxycyclohexyl)oxy)isoindolin-1-one], the EC50 stood at 210 nM and the “activity (%) at 10 μM” value is 99%.
